The text below walks through data of patent US7265103B2, “Substituted amino isoxazoline derivatives and their use as anti-depressants” (Janssen Pharmaceutica NV., priority 2002, dated 2007).

In one data set the target is T1, hα2A receptor (Homo sapiens, UniProt P08913).
T1 construct: expressed in transfected cells; host or cells: CHO cells
T1 sequence (P08913 1-465): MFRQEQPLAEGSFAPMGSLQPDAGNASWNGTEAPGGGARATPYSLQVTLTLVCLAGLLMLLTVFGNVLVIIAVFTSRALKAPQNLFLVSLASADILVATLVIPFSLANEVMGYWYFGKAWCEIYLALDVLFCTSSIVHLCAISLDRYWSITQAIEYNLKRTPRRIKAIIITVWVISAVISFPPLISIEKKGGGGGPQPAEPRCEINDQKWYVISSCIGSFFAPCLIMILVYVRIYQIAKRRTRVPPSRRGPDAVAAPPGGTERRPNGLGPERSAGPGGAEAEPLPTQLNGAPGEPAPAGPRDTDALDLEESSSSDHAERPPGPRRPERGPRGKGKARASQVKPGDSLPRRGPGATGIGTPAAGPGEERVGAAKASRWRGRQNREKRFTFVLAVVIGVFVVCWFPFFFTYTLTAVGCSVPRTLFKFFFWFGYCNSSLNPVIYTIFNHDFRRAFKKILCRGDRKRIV
Briefly: Radioligand binding experiment for α2A-adrenergic receptor ([3H]-raulwolscine). To be noted: CHO cell membranes with human α2A receptor, [3H]raulwolscine 1 nM; read-out: pIC50 α2A (converted). In a few lines: (§1)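 Membranes from CHO cells stably expressing human α2A or α2C receptors (sodium butyrate-induced) incubated with 1 nM [3H]raulwolscine in 25 mM glycylglycine pH 8.0 for 60 min at 25° C, then filtered. Non-specific binding defined with 1 μM oxymetazoline (α2A) or 1 μM spiroxatrine (α2C); pIC50 from sigmoidal competition curves.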

The next data set has as its target T2, h5-HT transporter (Homo sapiens, UniProt P31645).
T2 construct: Human platelet membranes (Oceanix Biosciences Corporation, Hanover, Md., USA) were thawed; tissue Oceanix Biosciences Corporation; host or cells: human platelet membranes
Briefly: Radioligand binding experiment for 5-HT transporter ([3H]paroxetine). Particulars: human platelet membranes, [3H]paroxetine 0.5 nM. In a few lines: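 Competition binding on human platelet membranes (50-100 μg protein) in 50 mM Tris-HCl, 120 mM NaCl, 5 mM KCl with 0.5 nM [3H]paroxetine, 60 min at 25 °C, filtration and scintillation counting. Non-specific binding defined with 1 μM imipramine; pIC50 from nonlinear sigmoidal fits of percent total binding.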

A further data set deals with T3, hα2C receptor (Homo sapiens, UniProt P18825).
T3 construct: expressed in transfected cells; host or cells: CHO cells
T3 sequence (P18825 1-462): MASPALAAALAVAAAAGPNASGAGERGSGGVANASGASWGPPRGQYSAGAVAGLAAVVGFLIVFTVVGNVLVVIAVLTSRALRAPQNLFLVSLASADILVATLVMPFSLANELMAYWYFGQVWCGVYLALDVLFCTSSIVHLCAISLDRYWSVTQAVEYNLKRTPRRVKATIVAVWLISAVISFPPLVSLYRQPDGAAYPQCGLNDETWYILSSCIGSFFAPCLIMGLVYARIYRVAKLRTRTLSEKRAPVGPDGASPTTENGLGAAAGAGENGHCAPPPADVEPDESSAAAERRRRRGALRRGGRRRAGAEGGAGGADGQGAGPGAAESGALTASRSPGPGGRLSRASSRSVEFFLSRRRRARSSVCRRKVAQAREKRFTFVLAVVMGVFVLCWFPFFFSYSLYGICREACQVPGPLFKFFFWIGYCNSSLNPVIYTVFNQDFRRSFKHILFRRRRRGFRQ
Briefly: Radioligand binding experiment for α2C-adrenergic receptor ([3H]-raulwolscine). Particulars: CHO cell membranes with human α2C receptor, [3H]raulwolscine 1 nM; read-out: pIC50 α2C (converted). A digest of the protocol: as §1

For orientation: melting point means the temperature of the solid-liquid transition.

T2 sequence (P31645 whole entry): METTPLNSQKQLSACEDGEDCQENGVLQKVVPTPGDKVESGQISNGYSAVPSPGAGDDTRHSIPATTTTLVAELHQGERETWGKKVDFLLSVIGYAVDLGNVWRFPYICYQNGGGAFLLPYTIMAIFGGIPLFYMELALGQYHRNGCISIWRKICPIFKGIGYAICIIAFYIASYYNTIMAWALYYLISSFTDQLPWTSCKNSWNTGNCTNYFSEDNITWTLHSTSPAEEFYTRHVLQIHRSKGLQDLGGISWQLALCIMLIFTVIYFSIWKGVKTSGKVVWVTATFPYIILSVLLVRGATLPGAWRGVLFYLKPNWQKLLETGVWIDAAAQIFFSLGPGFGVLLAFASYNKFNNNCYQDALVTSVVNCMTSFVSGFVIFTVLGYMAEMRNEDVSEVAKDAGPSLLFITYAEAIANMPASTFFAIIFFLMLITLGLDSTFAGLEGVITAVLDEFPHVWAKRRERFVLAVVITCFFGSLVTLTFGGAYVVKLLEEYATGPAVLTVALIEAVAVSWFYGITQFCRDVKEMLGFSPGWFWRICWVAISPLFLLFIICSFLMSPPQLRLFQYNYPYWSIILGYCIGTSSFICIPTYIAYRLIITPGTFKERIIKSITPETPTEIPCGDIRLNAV

Consider `CC(=Cc1ccc(F)cc1)CN1CCN(CC2ON=C3c4ccc(N5CCOCC5)cc4OCC32)CC1` (stereo not drawn) [Compound 84], for which the melting point lay within 179.2 to 188.8 °C. For the same compound, the IC50 at hα2A receptor is 6.31 nM. At h5-HT transporter, this compound had an IC50 of 25.1 nM. Besides, the IC50 on hα2C receptor was 1.26 nM.

For `C/C(=C\c1cccc(F)c1)CN1CCN(CC2ON=C3c4cc5c(cc4OCC32)NCCO5)CC1` (stereo not drawn) [Compound 89], the melting point was in the range of 145.4 to 153.1 °C. Also, at hα2A receptor, the IC50 is 3.98 nM. For the same compound, at h5-HT transporter, the IC50 is 3.98 nM. For the same compound, at hα2C receptor, the IC50 was 1 nM.

Take `C/C(=C\c1ccc(F)cc1)CN1CCN(CC2ON=C3c4cc5c(cc4OCC32)NCCO5)CC1` (stereo not drawn) [Compound 90]: the melting point fell in the range of 160.6 to 172.2 °C. For the same compound, the IC50 on hα2A receptor is 15.8 nM. The same compound gave an IC50 at h5-HT transporter of 15.8 nM. Besides, the IC50 at hα2C receptor is 1.58 nM.

`C/C(=C\CN1CCN(CC2ON=C3c4cc5c(cc4OCC32)NCCO5)CC1)c1ccccc1` (stereo not drawn) [Compound 91]: the melting point fell in the range of 130.4 to 146.4 °C. In addition, the IC50 on hα2A receptor was 6.31 nM. For the same compound, the IC50 at h5-HT transporter is 31.6 nM. In addition, the IC50 at hα2C receptor was 1.58 nM.

`c1ccc2cc(CN3CCN(CC4ON=C5c6cc7c(cc6OCC54)NCCO7)CC3)ccc2c1` (stereo not drawn) [Compound 92] showed a melting point of 85.3 to 103.9 °C. Further, on hα2A receptor, the IC50 was 20 nM. At h5-HT transporter, this compound showed an IC50 of 5.01 nM. The IC50 on hα2C receptor was 2.51 nM.

Compound `Clc1ccc(CN2CCN(CC3ON=C4c5cc6c(cc5OCC43)NCCO6)CC2)cc1` (stereo not drawn) [Compound 94] yielded a melting point of 186.5 to 198 °C. Besides, the IC50 at hα2A receptor was 316 nM. Besides, the IC50 on h5-HT transporter is 126 nM. Also, the IC50 on hα2C receptor is 31.6 nM.
